Molecular target: T1, Calpain-1 catalytic subunit (Sus scrofa, UniProt P35750)
T1 sequence (P35750 whole entry): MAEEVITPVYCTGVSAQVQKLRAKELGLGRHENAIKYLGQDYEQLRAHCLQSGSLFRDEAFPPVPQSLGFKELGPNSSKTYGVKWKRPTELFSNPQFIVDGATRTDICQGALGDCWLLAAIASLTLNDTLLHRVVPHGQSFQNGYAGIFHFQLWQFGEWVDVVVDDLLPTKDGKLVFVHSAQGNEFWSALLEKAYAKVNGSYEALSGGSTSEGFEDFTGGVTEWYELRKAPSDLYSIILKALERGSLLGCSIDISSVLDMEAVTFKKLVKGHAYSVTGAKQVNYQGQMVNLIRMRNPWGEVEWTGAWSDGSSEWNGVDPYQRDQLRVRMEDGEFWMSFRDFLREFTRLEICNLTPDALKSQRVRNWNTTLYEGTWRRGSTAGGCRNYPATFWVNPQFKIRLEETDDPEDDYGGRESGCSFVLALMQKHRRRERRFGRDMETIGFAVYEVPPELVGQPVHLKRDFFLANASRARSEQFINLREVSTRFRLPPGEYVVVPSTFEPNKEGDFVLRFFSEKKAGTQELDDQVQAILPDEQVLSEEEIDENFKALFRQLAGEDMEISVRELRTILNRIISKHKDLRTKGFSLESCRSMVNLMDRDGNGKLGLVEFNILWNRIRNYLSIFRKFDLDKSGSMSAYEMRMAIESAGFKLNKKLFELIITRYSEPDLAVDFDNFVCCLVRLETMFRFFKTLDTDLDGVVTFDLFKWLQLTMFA
Assay: Binding affinity was evaluated against porcine erythrocyte Calpain 1 at the S1 subsite of the enzyme

Structure (SMILES) | Ki [µM]
CCON(C)C(=O)C(=O)[C@H](Cc1ccccc1)NC(=O)[C@H](CC(C)C)NC(=O)OCc1ccccc1 | 0.75
CC(C)C[C@H](NC(=O)OCc1ccccc1)C(=O)N[C@@H](Cc1ccccc1)C(=O)C(=O)NOCc1ccccc1 | 0.045
CC(C)C[C@H](NC(=O)OCc1ccccc1)C(=O)N[C@@H](Cc1ccccc1)C(=O)C(=O)N(C)OCc1ccccc1 | 0.673
CCONC(=O)C(=O)[C@H](Cc1ccccc1)NC(=O)[C@H](CC(C)C)NC(=O)OCc1ccccc1 | 0.062
CC(C)C[C@H](NC(=O)OCc1ccccc1)C(=O)N[C@@H](Cc1ccccc1)C(=O)C(=O)NCCc1ccccc1 | 0.072
CCCNC(=O)C(=O)[C@H](Cc1ccccc1)NC(=O)[C@H](CC(C)C)NC(=O)OCc1ccccc1 | 0.107
CCN(OCc1ccccc1)C(=O)C(=O)[C@H](Cc1ccccc1)NC(=O)[C@H](CC(C)C)NC(=O)OCc1ccccc1 | 28
CCN(CC)C(=O)C(=O)[C@H](Cc1ccccc1)NC(=O)[C@H](CC(C)C)NC(=O)OCc1ccccc1 | 76
CCNC(=O)C(=O)[C@H](Cc1ccccc1)NC(=O)[C@H](CC(C)C)NC(=O)OCc1ccccc1 | 0.2

Source: ChEMBL document CHEMBL1134436, “Significance of hydrogen bonding at the S(1)' subsite of calpain I” (Bioorg Med Chem Lett, 2001)
